We go through one molecule from patent US20070117776A1, “Low Dose Therapy Of DNA Methylation Inhibitors” (priority 2005, published 2007).

Structures are written as SMILES.

Data set [1] can be described thus: Maximum degradation in the infusion estimated for selected infusion schedules. In kind it is physicochemical. The conditions noted are these: 0.1-1 mg/mL; for Average degradation rate: estimate assuming linearity. Here is the method: Table 3 summarizes the maximum degradation estimated using a series of infusion schedules (S1 through S7 as denoted in the table) selected to establish degradation limits and acceptable shelf life of the diluted solution. The average degradation rate used for calculations is based on the assumption that degradation in solutions is linear and the slope between the initial and the terminal time point is considered to be worst case. If the solution is prepared appropriately and used immediately, degradation would be minimal. It is recommended that a diluted infusion should not be stored longer than seven hours in a refrigerator for a three hour infusion or longer than 10 hours in a refrigerator for a two hour infusion in order to stay within the 10% maximum limit allowed for degradation.

In data set [2] the test system is intermediate and high-risk MDS and CMML. Briefly: Randomized low dose decitabine schedules in patients with hematological disorders. In kind it is in vivo, human. Here is the method: Patients with intermediate and high-risk MDS and CMML were randomized to one of three decitabine schedules: (1) 20 mg/m^2 infused intravenously over 1 hour, once daily, for five days; (2) 10 mg/m^2, infused intravenously over one hour, once daily, for ten days; (3) 10 mg/m^2, injected subcutaneously twice a day, for five days.
Decitabine was supplied as a lyophilized powder, 50 mg in 20 mL glass vials, for reconstitution with 10 mL sterile water (Supergen, Inc., Dublin Calif., through Pharmachemie B.V., Haarlem, The Netherlands). The reconstituted stock solution contained 5 mg/mL decitabine, 6.8 mg KH2PO4, and approximately 1.1 mg/mL NaOH. The reconstituted solution was further diluted for intravenous infusion or subcutaneous injection with pharmaceutically acceptable cold infusion fluids (physiological saline, glucose-saline, lactated Ringer's solution). The time delay between preparation of the infusion/injection solution was kept as short as practicable, with refrigerated storage prior to administration not to exceed 4-5 hours.
Patients received one course of treatment (as defined above) every 28 days. […] Patients were allowed 40,000 units of erythropoietin weekly for anemia, or GCSF if needed.
The age of 92 treated patients ranged from 31-90 years (median: 65, with 66% of patients being older than 60); according to IPSS prognostic scores, 25% of patients were classified as intermediate-1, 38% as intermediate-2, 19% as high risk, and 17% as having chronic myelomonocytic leukemia (CMML). […] Twenty-seven patients had had prior erythropoietin; 17 had had prior GCSF, and 22 had had other prior therapies.

[3] abbreviates: all three schedules, 92 treated patients.

In the case of `Nc1ncn([C@H]2C[C@H](O)[C@@H](CO)O2)c(=O)n1` [Decitabine, 4-amino-1-(2-deoxy-β-D-erythro-pentofuranosyl)-1,3,5-triazin-2(1H)-one], the Average degradation rate in data set [1] (@ 4° C.) is 0.40 %/hr; in data set [1] (@ Room Temperature), 2.44 %/hr. Further, the Maximum degradation was 9.72 % peak area in data set [1] (S1 (6 hr stored @4° C. + 3 hr @ RT during infusion)); 10.12 % peak area in data set [1] (S2 (7 hr stored @4° C. + 3 hr @ RT during infusion)); 7.68 % peak area in data set [1] (S3 (7 hr stored @4° C. + 2 hr @ RT during infusion)); 10.52 % peak area in data set [1] (S4 (8 hr stored @4° C. + 3 hr @ RT during infusion)); 8.08 % peak area in data set [1] (S5 (8 hr stored @4° C. + 2 hr @ RT during infusion)); 8.48 % peak area in data set [1] (S6 (9 hr stored @4° C. + 2 hr @ RT during infusion)). For the same molecule, the Maximum degradation in data set [1] (S7 (10 hr stored @4° C. + 2 hr @ RT during infusion)) is on record as 8.88 % peak area. In data set [2] (5-day IV arm versus the other arms, after 55 patients were randomized), the comparison of schedules entry is listed as “statistically superior”. In addition, the “complete remission (patients with CR/patients treated)” value in data set [2] (5-day IV courses: 20 mg/m^2 infused intravenously over 1 hour, once daily, for five days) was 24/57; in data set [2] (5-day subcutaneous courses: 10 mg/m^2 injected subcutaneously twice a day, for five days), 4/14; in data set [2] (10-day IV courses: 10 mg/m^2 infused intravenously over one hour, once daily, for ten days) it was 4/17. Also, the myelosuppression entry in data set [2] (10-day IV cohort (10 mg/m^2 over one hour, once daily, ten days) compared with the other schedules) is reported as “more myelosuppression”. Also, the “CB combined with bone marrow CR” value in data set [2] (setting [3]) is “Thirteen”. Further, in data set [2] (setting [3]), the “Partial remission (PR)” value is given as “seven”. In addition, the “clinical benefit (CB)” value in data set [2] (setting [3]) is “Sixteen”. Moreover, the “complete remission (CR)” value in data set [2] (setting [3]) is 32 patients. Also, the “number of treatment courses in patients who achieved CR (median)” value in data set [2] (one course every 28 days) was 3. For the same molecule, the “number of treatment courses in patients who achieved CR (range)” value in data set [2] (one course every 28 days) is listed as “one to six”. For the same molecule, in data set [2] (patients who received at least one course of treatment), the “patients who showed a response (overall)” value is reported as 76%.
